Source: patent publication US20050244490A1, “Dosing methods for beta-D-2',3'-dideoxy-2',3'-didehydro-5-fluorocytidine antiviral therapy” (priority 2003, published 2005)
Like-named read-outs stand apart in the source and are kept apart here. Blank lines part the entries; values can stand above or below the compound they belong to.

What was measured:
HIV viral load [1] = settings: cited from earlier work
HepG2 cells = assay: Mitochondrial toxicity testing (mitDNA, rRNA, lactic acid); format: cell-based; settings: 14 days; for % Change in Lactic Acid: normalized for cytotoxicity
Experimental: HepG2 cells were incubated for 14 days with the active agent. and mitDNA and rRNA levels were determined by quantitative real-time PCR. The results are tabulated in […]

[2] = test system: acutely HIV-1 infected human PBM cells; assay: Median effect / combination index study with Racivir; format: cell-based; settings: Human immunodeficiency virus 1, PBMC, 120 h; Day 5; assays (1), (2), (3); read-out: EC90
HIV viral load [3] = assay: Viral load decline on repeated dosing, β-D-D4FC and competing nucleosides; format: in vivo; settings: 200 to 600 mg QD, duration of dosing 14; not monotherapy, in combination with EFV & D4T
wild type HIV-RT = biological target: T1, wild type HIV-RT (Human immunodeficiency virus type 1 group M subtype B, UniProt P04585); assay: Ki / Km for wild type HIV-RT; format: biochemical, HIV-1
T1 construct: The Ki value for β-D-D4FC-TP for wild type HIV-RT

M184V mutant RT = M184V mutant RT (Human immunodeficiency virus type 1 group M subtype B, UniProt P04585, M771V); assay: biochemical; format: biochemical, HIV-1
DNA Pol β = DNA Pol β (Homo sapiens, UniProt P06746); assay: Inhibition of pure DNA polymerase β by nucleoside triphosphates; format: biochemical; settings: tritiated dCTP incorporation
Experimental: (§1) Triphosphates of nucleosides were tested against pure polymerases using tritiated dCTP incorporation.

DNA Pol γ = biological target: T2, DNA Pol γ (Homo sapiens, UniProt P54098); assay: Inhibition of pure DNA polymerase γ by nucleoside triphosphates; format: biochemical; settings: tritiated dCTP incorporation
T2 sequence (P54098 1-1239): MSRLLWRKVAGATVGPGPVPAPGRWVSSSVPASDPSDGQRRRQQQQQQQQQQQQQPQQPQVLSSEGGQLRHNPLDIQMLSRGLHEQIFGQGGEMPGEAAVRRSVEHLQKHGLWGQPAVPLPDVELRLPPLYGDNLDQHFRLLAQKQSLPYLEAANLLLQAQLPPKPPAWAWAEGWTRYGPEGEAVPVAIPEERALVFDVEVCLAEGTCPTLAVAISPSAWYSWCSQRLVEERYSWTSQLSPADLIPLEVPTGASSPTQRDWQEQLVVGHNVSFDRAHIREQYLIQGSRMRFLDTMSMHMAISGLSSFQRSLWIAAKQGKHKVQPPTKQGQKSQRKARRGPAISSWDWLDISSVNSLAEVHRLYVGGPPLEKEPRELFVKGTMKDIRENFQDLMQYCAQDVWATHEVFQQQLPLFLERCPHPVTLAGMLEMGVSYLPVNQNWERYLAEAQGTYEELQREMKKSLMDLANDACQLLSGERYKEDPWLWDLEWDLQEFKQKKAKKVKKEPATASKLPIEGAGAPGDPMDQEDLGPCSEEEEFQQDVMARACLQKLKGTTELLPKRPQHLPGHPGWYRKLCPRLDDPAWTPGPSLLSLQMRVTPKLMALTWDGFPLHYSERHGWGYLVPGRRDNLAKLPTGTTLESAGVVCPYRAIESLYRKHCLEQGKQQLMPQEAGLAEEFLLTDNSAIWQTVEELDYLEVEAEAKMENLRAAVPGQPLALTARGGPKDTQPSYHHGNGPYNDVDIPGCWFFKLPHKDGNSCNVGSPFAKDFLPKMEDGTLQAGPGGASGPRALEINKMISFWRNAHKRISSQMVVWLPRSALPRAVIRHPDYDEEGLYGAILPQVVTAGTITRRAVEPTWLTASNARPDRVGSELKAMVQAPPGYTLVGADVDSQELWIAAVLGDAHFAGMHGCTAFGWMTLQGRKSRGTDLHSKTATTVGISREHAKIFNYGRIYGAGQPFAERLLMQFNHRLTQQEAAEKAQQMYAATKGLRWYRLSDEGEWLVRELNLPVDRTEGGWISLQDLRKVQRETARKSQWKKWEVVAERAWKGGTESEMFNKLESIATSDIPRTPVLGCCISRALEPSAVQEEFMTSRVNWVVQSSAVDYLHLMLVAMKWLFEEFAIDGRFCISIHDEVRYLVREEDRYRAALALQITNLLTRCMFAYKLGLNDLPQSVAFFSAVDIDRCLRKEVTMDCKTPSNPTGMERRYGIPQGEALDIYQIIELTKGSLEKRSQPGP
Experimental: as §1

[4] = Intracellular phosphorylation and triphosphate half-life in PBMCs
HIV RT = biological target: T3, HIV RT (Human immunodeficiency virus type 1 group M subtype B, UniProt P04585); assay: Inhibition of purified HIV-1 reverse transcriptase by nucleoside triphosphates (tritiated dCTP incorporation); format: biochemical
T3 construct: purified HIV-1 reverse transcriptase (RT)
Experimental: An assay was performed to determine the ability of β-D-D4FC-triphosphate to terminate polymerization catalyzed by purified HIV-1 reverse transcriptase (RT). […] The target concentration is that concentration where most mutant variants tested are suppressed by 90% or more. The concentration of 5 μM is the target plasma concentration as most, mutant variants tested were suppressed ≧90% in vitro.
as §1

SMILES: Nc1nc(=O)n([C@@H]2CS[C@H](CO)O2)cc1F [FTC, β-L-2′,3′-dideoxy-3′-thia-5-fluorocytidine]
Viral Load Decline (log) (HIV viral load [1]; 200 mg QD, duration of dosing 12): −1.7 log

SMILES: Nc1nc(=O)n([C@H]2C=C[C@@H](CO)O2)cc1F [L-D4FC]
Viral Load Decline (log) (HIV viral load [1]; 50 mg QD, duration of dosing 21, add-on study in experienced patients, mean of 7 of 18 patients): −1.69 log
% Change in mitDNA (HepG2 cells; 1 μM): −15%
% Change in rRNA (HepG2 cells; 1 μM): 0%
% Change in Lactic Acid (HepG2 cells; 1 μM): +25%
% Change in mitDNA (HepG2 cells; 10 μM): −74.2%
% Change in rRNA (HepG2 cells; 10 μM): −75.5%
% Change in Lactic Acid (HepG2 cells; 10 μM): +147%

SMILES: Nc1nc(=O)n(C2CSC(CO)O2)cc1F (centres unmarked) [Racivir, reference compound]
EC90 [2]: 170 nM
Viral Load Decline (log) (HIV viral load [3]): −2.02 to −2.43 log

SMILES: Nc1ccn([C@H]2CO[C@@H](CO)S2)c(=O)n1 [SPD 754]
Viral Load Decline (log) (HIV viral load [1]; 1200 mg QD, duration of dosing 10): −1.62 log

SMILES: C[C@H](Cn1cnc2c(N)ncnc21)OCP(=O)(O)O [TFV]
Viral Load Decline (log) (HIV viral load [1]; 300 mg QD, duration of dosing 28): −1.57 log

SMILES: Nc1ccn([C@H]2C[C@H](O)[C@@H](COP(=O)(O)OP(=O)(O)OP(=O)(O)O)O2)c(=O)n1 [dC-TP]
Km (wild type HIV-RT; Km for dC-TP (substrate), read-out: Km WT): 7 µM
Km (M184V mutant RT; Km for dC-TP (substrate)): 9 µM

SMILES: Nc1ccn([C@H]2CC[C@@H](CO)O2)c(=O)n1 [ddC, 2′,3′-dideoxycytidine]
% Change in mitDNA (HepG2 cells; 1 μM): −99.7%
% Change in rRNA (HepG2 cells; 1 μM): −65.4%
% Change in Lactic Acid (HepG2 cells; 1 μM): +390%
% Change in mitDNA (HepG2 cells; 10 μM): −99.7%
% Change in rRNA (HepG2 cells; 10 μM): −73.6%
% Change in Lactic Acid (HepG2 cells; 10 μM): +492%

IC50 (DNA Pol β): 250 nM
IC50 (DNA Pol γ): 70 nM
SMILES: Nc1ccn([C@H]2CC[C@@H](COP(=O)(O)OP(=O)(O)OP(=O)(O)O)O2)c(=O)n1 [ddC-TP]

SMILES: Nc1nc(=O)n([C@H]2C=C[C@@H](COP(=O)(O)OP(=O)(O)OP(=O)(O)O)O2)cc1F [β-D-D4FC-TP]
Intracellular half life [4]: 13 to 17 h
intracellular half-life [4]: 13 to 17 h
extracellular concentration at which intracellular conversion to β-D-D4FC-TP plateaus ([4]; PHA-stimulated PBMCs): ~10 µM
accumulation, % of parent ([4]; in 8-10 hours): ~10%
IC50 (DNA Pol β): 1200 nM
Ki (wild type HIV-RT; read-out: Ki WT): 100 nM
IC50 (HIV RT; pure polymerase, tritiated dCTP incorporation, read-out: IC50): 140 nM
IC50 (HIV RT; read-out: IC50, wild type purified RT): 67 ± 40 nM
IC50 (DNA Pol γ): 740 nM
Ki (M184V mutant RT; read-out: Ki M184V): 300 nM
